In publication PMC8221158, “Novel pyrrolizines bearing 3,4,5-trimethoxyphenyl moiety: design, synthesis, molecular docking, and biological evaluation as potential multi-target cytotoxic agents” (Journal of Enzyme Inhibition and Medicinal Chemistry, 2021):

Tests used:
[1] = system: A2780; assay: MTT cell proliferation assay; format: cell-based, human; settings: for IC50: Homo sapiens, A2780, MTT, 72 h treatment, n = 3, read-out: IC50 (µM ± SD) A2780; for Selectivity index A2780: IC50 MRC-5 / IC50 A2780
Method: (§1) MCF-7 (human breast adenocarcinoma), A2780 (human ovarian cancer) and HCT116 (human colorectal carcinoma), and MRC-5 (normal foetal lung fibroblast) cell lines were bought from the ATCC and were cultured in flasks which were incubated at 37 °C in an atmosphere of 5% CO2, 95% air, and 100% relative humidity, to maintain continuous logarithmic growth. MCF-7, A2780, and HCT116 were maintained in RPMI-1640 media (100 U/mL penicillin, 100 µg/mL streptomycin, and 10% foetal bovine serum, Gibco, Carlsbad, CA). MRC-5 cells were maintained in EMEM (100 U/mL penicillin, 100 µg/mL streptomycin, and 10% foetal bovine serum, Gibco, Carlsbad, CA). Doxorubicin (5 μg/mL, for three months) added for RPMI-1640 media containing MCF7 cells was used to develop doxorubicin-resistant MCF7/ADR cells. All cancer and normal cell lines were cultured according to our previous report. Cells were used within 10–20 passages and were checked for mycoplasma every 6 months, by measuring the bioluminescence (Myco Alert sample detection kit; Lonza, Basel, Switzerland) using the multiplate reader (Synergy HT, BioTek, Winooski, VT).
(§2) The MTT assay was used to measure the cytotoxicity and growth inhibitory activities and cytotoxicity of the new compounds according to our previous report[13]^,[17]. Cells from flasks of 70–80% confluency were separately seeded in 96-well flat-bottom microculture plates (Nalgene-Nunc, Thermo Fisher Scientific, Roskilde, Denmark) at a density of 3 × 10^3 cells (MCF-7, A2780, and MRC-5), 1 × 10^4 cells (HCT116), to a volume of 180 μL/well of culture medium. A Neubauer haemocytometer was used for cell counting. Cells were incubated at 37 °C overnight to allow attachment to the wells. The final concentrations of each compound in wells were: 0–50 μM in 200 μL of media (DMSO 0.1%). Lapatinib (Cayman, Ann Arbor, MI) was used as a positive control at the same final concentrations. Medium only (20 μL) was added to each control well, and each concentration was tested in triplicates (n = 3). Following incubation for 72 h, 50 μL MTT was added into each well. Plates were incubated for 3 h, the supernatant was aspirated, and 100 μL of DMSO was added to each well. The optical density (OD) of the purple formazan is proportional to the number of viable cells. […] GraphPad Prism version 5.00 for Windows was used for analysis (La Jolla, CA). Cytotoxicity of the new compounds was calculated after treatment of cancer/normal cell lines for 72 h. The absorbance of the reduced MTT was determined using a microplate reader A570 nm.
(§3) The cytotoxic activity of the new compounds (15a–e, 16a–e, 20, and 21) was evaluated in vitro using MTT assay. The MTT assay depends on the reduction of the yellow tetrazole dye (MTT) to the purple formazan by the active mitochondrial dehydrogenase enzymes indicating the viability of the cells which can be measured as OD. The new compounds were evaluated against three non-resistant cancer cell lines: MCF-7, and A2780 cell lines were selected to compare cytotoxicity of the new compounds with the previously reported results of compounds 9a,b[13]. Cytotoxicity of the new compounds was also evaluated also against HCT116 cells which lacks COX-2 protein[33]^,[34].

[2] = system: HCT116; assay: MTT cell proliferation assay; format: cell-based, human; settings: for IC50: Homo sapiens, HCT-116, MTT, 72 h treatment, n = 3, read-out: IC50 (µM ± SD) HCT116; for Selectivity index HCT116: IC50 MRC-5 / IC50 HCT116
Method: as §1, §2, §3

[3] = system: MCF-7; assay: MTT cell proliferation assay; format: cell-based, human; settings: for IC50: Homo sapiens, MCF7, MTT, 72 h treatment, n = 3, read-out: IC50 (µM ± SD) MCF-7; for Selectivity index MCF-7: IC50 MRC-5 / IC50 MCF-7
Method: as §1, §2, §3

[4] = system: MCF-7, HCT116, and A2780 cancer cell lines; assay: MTT assay, three cancer cell lines taken together (average, overall range); format: cell-based, human; settings: Homo sapiens; MCF-7, HCT116, A2780; read-out: Average of the three IC50 values against the three cancer cell lines
Method: Cells from flasks of 70–80% confluency were separately seeded in 96-well flat-bottom microculture plates (Nalgene-Nunc, Thermo Fisher Scientific, Roskilde, Denmark) at a density of 3 × 10^3 cells (MCF-7, A2780, and MRC-5), 1 × 10^4 cells (HCT116), to a volume of 180 μL/well of culture medium. […] The final concentrations of each compound in wells were: 0–50 μM in 200 μL of media (DMSO 0.1%). Lapatinib (Cayman, Ann Arbor, MI) was used as a positive control at the same final concentrations. Medium only (20 μL) was added to each control well, and each concentration was tested in triplicates (n = 3). Following incubation for 72 h, 50 μL MTT was added into each well. Plates were incubated for 3 h, the supernatant was aspirated, and 100 μL of DMSO was added to each well. The optical density (OD) of the purple formazan is proportional to the number of viable cells. […] The absorbance of the reduced MTT was determined using a microplate reader A570 nm.

[5] = system: normal MRC-5 cells; assay: MTT assay, normal cells (cytotoxic selectivity); format: cell-based; settings: Homo sapiens, MRC5, 72 h treatment, n = 3, read-out: IC50 (µM ± SD) MRC-5
Method: as §1, §2
Selectivity towards cancerous cells is one of the important issues which must be considered during the discovery and development of new anticancer agents. To assess the toxicity and selectivity of the new compounds (15a–e, 16a–e, 20, and 21), their growth inhibitory activities against normal human foetal lung fibroblast MRC-5 cells were evaluated using the MTT assay. […] The selectivity of the new compounds towards each of the three cancer cell lines was calculated by dividing their IC50 values against normal MRC-5 cells by their IC50 values against the corresponding cancer cell line (Table 3).

[6] = biological target: T1, porcine tubulin (Sus scrofa, UniProt P02550+P02554); assay: Tubulin polymerisation fluorescence-based assay; format: biochemical; settings: 5 μM, 37 °C, 60 min; qualitative
T1 construct: purchased Cytoskeleton Inc., Denver, CO BK011P
Method: The effect of compounds 16a,b,d on tubulin polymerisation was measured in vitro using tubulin polymerisation fluorescence-based assay (cytoskeleton, cat. BK011P, https://www.cytoskeleton.com/bk011p). The assay was performed following the previous report[22] and according to the manufacturer’s instructions. Briefly, 2 mg/mL porcine tubulin was dissolved in buffer 1 (80 mM PIPES, 2 mM MgCl2, 0.5 mM EGTA pH 6.9, 10 µM fluorescent reporter, 1 mM GTP, 15% glycerol) to a final concentration of […]. Then tubulin solution was transferred to a pre-warmed 96-well plate that contained the test compounds 16a,b,d (5 μM), paclitaxel (3 μM), CaCl2 (0.5 μM), and control buffer. The polymerisation of tubulin was monitored as fluorescence at 37 °C for 60 min. Relative fluorescence units (RFU) were determined at 360 nm for excitation and at 460 nm for emission using the Varioskan Flash spectral scanning multimode reader (Thermo Fisher Scientific, Roskilde, Denmark) at a reading speed of 1 cycle/min.
In the current study, the new compounds were designed bearing the trimethoxy phenyl moiety aiming to obtain new cytotoxic agents that can interfere with tubulin polymerisation in cancer cells. […] In this assay, light scattering by microtubules which is directly proportional to the concentration of the microtubule polymer was used as a measure of tubulin polymerisation. The study was performed using a fluorescence-based tubulin polymerisation assay kit (Cytoskeleton Inc., Denver, CO; Cat # BK011P) following the manufacturer’s instructions (https://www.cytoskeleton.com/bk011p) and according to the previous report.
Paclitaxel (3 μM) was used as a tubulin polymerisation enhancer (positive control, enhancer), while calcium chloride (CaCl2, 0.5 μM) was used as a positive control (inhibitor) as per the manufacturer’s instructions (https://www.cytoskeleton.com/pdf-storage/datasheets/bk011p.pdf). The vehicle was also used to evaluate the polymerisation when tubulin is incubated in the absence of the test compound. The effect of the selected compounds (5 μM) on tubulin polymerisation was evaluated and compared with those of the positive control. The results are represented in Figure 8.

T1 sequence (P02550 whole entry): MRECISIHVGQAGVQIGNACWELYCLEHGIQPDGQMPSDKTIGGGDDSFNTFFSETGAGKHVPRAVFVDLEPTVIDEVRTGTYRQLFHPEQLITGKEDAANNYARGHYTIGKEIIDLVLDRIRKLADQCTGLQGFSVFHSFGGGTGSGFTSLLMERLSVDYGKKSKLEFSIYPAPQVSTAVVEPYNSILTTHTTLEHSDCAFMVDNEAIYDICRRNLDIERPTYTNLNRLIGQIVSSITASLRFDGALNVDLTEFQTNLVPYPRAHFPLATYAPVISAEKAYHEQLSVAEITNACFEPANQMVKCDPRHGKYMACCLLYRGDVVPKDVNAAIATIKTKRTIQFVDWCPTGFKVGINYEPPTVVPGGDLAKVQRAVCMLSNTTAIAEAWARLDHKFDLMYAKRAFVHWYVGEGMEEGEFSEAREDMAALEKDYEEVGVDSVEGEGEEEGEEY
T1 sequence (P02554 whole entry): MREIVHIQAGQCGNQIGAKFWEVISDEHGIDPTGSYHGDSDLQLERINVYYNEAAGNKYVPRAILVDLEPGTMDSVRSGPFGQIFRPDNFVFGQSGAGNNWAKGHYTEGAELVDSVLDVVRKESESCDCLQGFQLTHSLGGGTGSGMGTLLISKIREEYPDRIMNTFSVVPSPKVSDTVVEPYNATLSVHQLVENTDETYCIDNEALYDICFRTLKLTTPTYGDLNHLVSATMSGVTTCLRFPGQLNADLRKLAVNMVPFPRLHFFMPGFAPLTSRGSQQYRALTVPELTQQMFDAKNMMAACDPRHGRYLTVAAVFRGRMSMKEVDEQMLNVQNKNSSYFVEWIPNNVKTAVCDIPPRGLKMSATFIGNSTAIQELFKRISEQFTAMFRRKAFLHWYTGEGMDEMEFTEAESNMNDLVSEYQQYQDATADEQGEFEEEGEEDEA

| IC50 [1] [µM] | IC50 [2] [µM] | IC50 [3] [µM] | IC50 [4] [nM] | effect on tubulin polymerisation [6] | melting point [°C] | Compound | Selectivity index A2780 [1] | Selectivity index HCT116 [2] | Selectivity index MCF-7 [3] | IC50 [5] [µM] |
| --- | --- | --- | --- | --- | --- | --- | --- | --- | --- | --- |
| 0.044 ± 0.01 | 0.135 ± 0.007 | 0.082 ± 0.002 | 87 | weak | 253 to 255 | COc1cc(C(=O)Nc2c(C#N)c3n(c2C(=O)Nc2ccccc2)CCC3)cc(OC)c1OC [16a, 7-Cyano-N-phenyl-6-(3,4,5-trimethoxybenzamido)-2,3-dihydro-1H-pyrrolizine-5-carboxamide] | 3.52 | 1.15 | 1.89 | 0.155 ± 0.062 |
| 0.18 ± 0.043 | 0.092 ± 0.001 | 0.068 ± 0.009 | 113 | moderate inhibitory activity | 265 to 267 | COc1cc(C(=O)Nc2c(C#N)c3n(c2C(=O)Nc2ccc(C)cc2)CCC3)cc(OC)c1OC [16b, 7-Cyano-N-(p-tolyl)-6-(3,4,5-trimethoxybenzamido)-2,3-dihydro-1H-pyrrolizine-5-carboxamide] | 32.51 | 63.60 | 86.04 | 5.85 ± 1.19 |
| 0.03 ± 0.005 | 0.097 ± 0.001 | 0.071 ± 0.001 | 66 | moderate inhibitory activity | 281 to 283 | COc1cc(C(=O)Nc2c(C#N)c3n(c2C(=O)Nc2ccc(Cl)cc2)CCC3)cc(OC)c1OC [16d, N-(4-Chlorophenyl)-7-cyano-6-(3,4,5-trimethoxybenzamido) -2,3-dihydro-1H-pyrrolizine-5-carboxamide] | 270.00 | 83.51 | 114.08 | 8.1 ± 0.897 |
